Source: patent US9926315B2, “Triazolopyridine compounds and methods for the treatment of cystic fibrosis” (Flatley Discovery Lab, LLC, priority 2014, dated 2018)

Biological target: T1, human ΔF508-CFTR (Homo sapiens, UniProt P13569, DEL508-508)
T1 construct: expressed in transfected cells
Experiment: CFTR-YFP High Throughput Assay (HTS YFP flux assay, corrector / potentiator protocols)
Assay type: cell-based
Conditions: FRT cells stably expressing human ΔF508-CFTR and YFP-H148Q/I152L; for Emax: normalized to positive control, read-out: Emax (% Efficacy, EMax normalized to the positive control)
Protocol: Assays for Detecting and Measuring the Effect of Compounds on dF508-CFTR Channels CFRT-YFP High Throughput Assay: Corrector Assay:
The following protocol is designed to selectively screen small molecule compounds for F508del CFTR corrector activities in the HTS YFP flux assay. In this protocol, the cells are incubated with testing compounds for 24 hours, washed with PBS, stimulated with forskolin and a standard potentiator, and read on a 384-well HTS plate reader, such as the Hamamatsu FDDD-6000.
(§1) YFP fluorescence intensity is acquired at high speed before and after iodide buffer is injected to the assay cells. Iodide enters the cells via active CFTR channels in the plasma membrane, and quenches the YFP fluorescence. The rate of fluorescence quenching is proportionally related to the total CFTR activities in the cell membrane. dF508-CFTR corrector accelerates YFP quenching by increasing the number of CFTR molecules in the testing cell plasma membrane.
This method was initially developed for bench top plate readers (Galietta, 2001), and was adapted to the HTS format (Sui, 2010).
Fisher Rat Thyroid (FRT) cells stably expressing both human ΔF508-CFTR and a halide-sensitive yellow fluorescent protein (YFP-H148Q/I152L 25, 22) (Galietta, 2001) were cultured on plastic surface in Coon's modified Ham's F12 medium supplemented with FBS 10%, L-glutamine 2 mM, penicillin 100 U/mL, and streptomycin 100 μg/mL. G418 (0.75-1.0 mg/mL) and zeocin (3.2 μg/mL) were used for selection of FRT cells expressing ΔF508-CFTR and YFP. For primary screening, FRT cells were plated into 384-well black wall, transparent bottom microtiter plates (Costar; Corning Inc.) at a cell density of 20, 000-40, 000 per well. Test compound was applied to the cells at varying concentrations ranging from 2 nM-[…] in either a 2-fold or 3-fold dilution series. Cells were incubated in a cell culture incubator at 37° C. with 5% CO2 for 24-26 h. Assay plates were washed with DPBS media (Thermo, cat#SH30028.02) to remove unbound cells and compound. Stimulation media (25 μL) containing 20 μM Forskolin & 30 μM P3 [6-(Ethyl-phenyl-sulfonyl)-4-oxo-1, 4-dihydro-quinoline-3-carboxylic acid 2-methoxy-benzylamide] in Hams F-12 coon's modified media was added to the plate wells and incubated at room temperature for 60-120 min. 25 μL of HEPES-PBS-I buffer (10 mM HEPES, 1 mM MgCl2, 3 mM KCl, 1 mM CaCl2, 150 mM NaI) was then added and fluorescence quench curves (Excitation 500 nm/Emission 540 nm; exposure 136 ms) were immediately recorded on an FDSS-6000 plate reader (Hamamatsu). Quench rates were derived from least squares fitting of the data (Sui, 2010).
The following protocol is designed to selectively screen small molecule compounds for F508del CFTR potentiator activities in the HTS YFP flux assay. In this protocol, the cells are incubated at 27° C. for 24 hours with homogeneously boosted dF508-CFTR expression in the cell membrane by the low temperature, washed with PBS, stimulated with forskolin, and read on a 384-well HTS plate reader, such as the Hamamatsu […].
as §1, with “dF508del-CFTR potentiators accelerate” for “dF508-CFTR corrector accelerates”, “increasing” for “increasing the number of”, “activities” for “molecules”
Fisher Rat Thyroid (FRT) cells stably expressing both human ΔF508-CFTR and a halide-sensitive yellow fluorescent protein (YFP-H148Q/I152L 25, 22) (Galietta, 2001) were cultured on plastic surface in Coon's modified Ham's F12 medium supplemented with FBS 10%, L-glutamine 2 mM, penicillin 100 U/mL, and streptomycin 100 μg/mL. G418 (0.75-1.0 mg/mL) and zeocin (3.2 μg/mL) were used for selection of FRT cells expressing ΔF508-CFTR and YFP. […]

T1 sequence (P13569 with tags, fused parts or gaps DEL508-508): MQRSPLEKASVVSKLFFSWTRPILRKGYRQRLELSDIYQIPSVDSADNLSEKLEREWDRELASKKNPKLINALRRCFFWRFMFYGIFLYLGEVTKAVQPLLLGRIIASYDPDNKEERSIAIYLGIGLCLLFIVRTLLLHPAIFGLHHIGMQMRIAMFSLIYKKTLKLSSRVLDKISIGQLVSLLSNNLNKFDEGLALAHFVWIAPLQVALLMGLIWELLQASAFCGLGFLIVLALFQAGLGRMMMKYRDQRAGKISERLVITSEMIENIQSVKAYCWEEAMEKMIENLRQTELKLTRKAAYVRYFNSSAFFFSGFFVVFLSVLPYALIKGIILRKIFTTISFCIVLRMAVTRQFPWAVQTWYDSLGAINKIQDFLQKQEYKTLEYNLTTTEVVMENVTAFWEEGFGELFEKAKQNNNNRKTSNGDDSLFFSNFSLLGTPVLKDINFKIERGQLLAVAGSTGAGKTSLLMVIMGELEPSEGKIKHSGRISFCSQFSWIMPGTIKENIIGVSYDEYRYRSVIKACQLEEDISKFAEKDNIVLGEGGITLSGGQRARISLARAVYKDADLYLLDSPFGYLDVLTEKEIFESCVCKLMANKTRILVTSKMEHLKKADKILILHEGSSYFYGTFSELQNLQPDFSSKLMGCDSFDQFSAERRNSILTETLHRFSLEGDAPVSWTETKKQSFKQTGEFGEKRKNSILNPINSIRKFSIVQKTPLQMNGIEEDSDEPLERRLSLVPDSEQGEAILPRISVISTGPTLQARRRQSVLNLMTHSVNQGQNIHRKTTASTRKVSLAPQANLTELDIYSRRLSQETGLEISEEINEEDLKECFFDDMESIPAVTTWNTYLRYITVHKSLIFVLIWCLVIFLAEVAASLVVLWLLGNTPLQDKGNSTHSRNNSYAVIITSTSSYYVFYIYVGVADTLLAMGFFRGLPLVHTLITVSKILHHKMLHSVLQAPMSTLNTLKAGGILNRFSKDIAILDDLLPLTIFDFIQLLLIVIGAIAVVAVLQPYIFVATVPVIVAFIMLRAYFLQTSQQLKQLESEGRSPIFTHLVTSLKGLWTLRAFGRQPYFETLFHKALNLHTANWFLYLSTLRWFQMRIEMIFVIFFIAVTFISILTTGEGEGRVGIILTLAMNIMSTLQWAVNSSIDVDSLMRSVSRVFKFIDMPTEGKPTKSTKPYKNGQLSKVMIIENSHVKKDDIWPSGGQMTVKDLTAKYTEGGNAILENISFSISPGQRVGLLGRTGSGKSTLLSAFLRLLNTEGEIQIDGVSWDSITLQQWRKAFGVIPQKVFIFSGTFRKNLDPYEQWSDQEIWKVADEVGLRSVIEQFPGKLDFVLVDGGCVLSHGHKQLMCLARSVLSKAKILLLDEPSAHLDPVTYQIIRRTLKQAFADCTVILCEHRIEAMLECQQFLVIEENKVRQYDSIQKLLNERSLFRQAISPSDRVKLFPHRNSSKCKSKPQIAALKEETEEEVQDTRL

Row | EC50 [nM] | Emax [%] | SMILES
1 | < 1000 | > 80 | O=S(=O)(c1ccccc1)c1ccc2nc(NCC3CC3)nn2c1 [Example 86]
2 | < 1000 | 40 to 80 | CCN(CC)S(=O)(=O)c1ccc2nnc(NCc3ccccc3C)n2c1 [Example 13]
3 | < 1000 | > 80 | CCN(CC)S(=O)(=O)c1ccc2nnc(NC(C)c3ccc(OC)cc3)n2c1 (centres unmarked) [Example 28]
4 | < 1000 | > 80 | CCOC(=O)OC(CNc1nnc2ccc(S(=O)(=O)c3ccccc3)cn12)C1CCCCC1 (centres unmarked) [Example 77]
5 | < 1000 | > 80 | O=S(=O)(c1ccccc1)c1ccc2nnc(NC[C@H](O)c3ccccc3)n2c1 [Example 70]
6 | < 1000 | 40 to 80 | CCN(CC)S(=O)(=O)c1ccc2nnc(NCc3ccc(OC)cc3)n2c1 [Example 16]
7 | < 1000 | 40 to 80 | O=C(c1ccc(CNc2nc3ccc(S(=O)(=O)c4ccccc4)cn3n2)cc1)N1CCC1 [Example 91]
8 | 1000 to 10000 | 40 to 80 | O=S(=O)(c1ccccc1)c1ccc2nc(NCc3ccc(C4CCOCC4)cc3)nn2c1 [Example 92]
9 | < 1000 | > 80 | CCN(CC)S(=O)(=O)c1ccc2nnc(NC(C)CC(C)C)n2c1 (centres unmarked) [Example 42]
10 | < 1000 | > 80 | C[C@@H](Nc1nc2ccc(S(=O)(=O)c3ccccc3)cn2n1)c1ccccc1 [Example 81]
11 | < 1000 | > 80 | O=S(=O)(c1ccccc1)c1ccc2nc(NC[C@@H](O)c3ccccc3)nn2c1 [Example 85]
12 | < 1000 | > 80 | CCN(CC)S(=O)(=O)c1ccc2nnc(NCc3ccc(C)cc3)n2c1 [Example 9]
13 | 1000 to 10000 | > 80 | O=C(CNc1nnc2ccc(S(=O)(=O)c3ccccc3)cn12)C1CCCCC1 [Example 79]
14 | < 1000 | > 80 | CCN(CC)S(=O)(=O)c1ccc2nnc(NCc3ccc(-c4ccccc4)cc3)n2c1 [Example 5]
15 | < 1000 | 40 to 80 | CCN(CC)S(=O)(=O)c1ccc2nnc(N[C@@H]3CCc4ccccc43)n2c1 [Example 46]
16 | 1000 to 10000 | 40 to 80 | CCN(CC)S(=O)(=O)c1ccc2nnc(NCC(C)(C)OC)n2c1 [Example 31]
17 | 1000 to 10000 | > 80 | O=S(=O)(c1ccccc1)c1ccc2nnc(NCCC3CCCCC3)n2c1 [Example 76]
18 | < 1000 | > 80 | COC[C@@H](Nc1nnc2ccc(S(=O)(=O)c3ccccc3)cn12)c1ccccc1 [Example 68]
19 | < 1000 | > 80 | CCN(CC)S(=O)(=O)c1ccc2nnc(NCc3cccc(C#N)c3)n2c1 [Example 56]
20 | < 1000 | > 80 | CCN(CC)S(=O)(=O)c1ccc2nnc(NC3CCCCC3)n2c1 [Example 11]
21 | < 1000 | 40 to 80 | CCN(CC)S(=O)(=O)c1ccc2nnc(NCC(=O)Nc3ccc(C)c(C)c3)n2c1 [Example 22]
22 | 1000 to 10000 | > 80 | O=S(=O)(c1ccccc1)c1ccc2nc(NCC(O)C3CCCCC3)nn2c1 (centres unmarked) [Example 84]
23 | > 10000 | > 80 | CCN(CC)S(=O)(=O)c1ccc2nnc(NC[C@H]3CCCO3)n2c1 [Example 23]
24 | < 1000 | > 80 | O=S(=O)(c1ccccc1)c1ccc2nnc(NCC(O)C3CCCCC3)n2c1 (centres unmarked) [Example 66]
25 | < 1000 | > 80 | CCN(CC)S(=O)(=O)c1ccc2nnc(NCC(C)C)n2c1 [Example 17]

More lines, now with the values behind:

Row | SMILES | EC50 [nM] | Emax [%]
26 | CCN(CC)S(=O)(=O)c1ccc2nnc(NCCC(C)(C)C)n2c1 [Example 45] | < 1000 | > 80
27 | O=S(=O)(c1ccccc1)c1ccc2nc(NC3Cc4ccccc4C3)nn2c1 [Example 80, N-(2,3-dihydro-1H-inden-2-yl)-6-(phenylsulfonyl)-[1,2,4]triazolo[1,5-a]pyridin-2-amine] | < 1000 | > 80
28 | O=S(=O)(c1ccccc1)c1ccc2nnc(NCc3ccc(C(F)(F)F)cc3)n2c1 [Example 63] | < 1000 | 40 to 80
29 | CCN(CC)S(=O)(=O)c1ccc2nnc(NCC3CCCO3)n2c1 (centres unmarked) [Example 14] | > 10000 | 40 to 80
30 | CC(C)(C)C(=O)OC(CNc1nnc2ccc(S(=O)(=O)c3ccccc3)cn12)C1CCCCC1 (centres unmarked) [Example 74] | < 1000 | > 80
31 | CCN(CC)S(=O)(=O)c1ccc2nnc(NCc3ccccc3)n2c1C [Example 61, 3-(Benzylamino)-N,N-diethyl-5-methyl-[1,2,4]triazolo[4,3-a]pyridine-6-sulfonamide] | 1000 to 10000 | 10 to 40
32 | CCN(CC)S(=O)(=O)c1ccc2nnc(N[C@@H](c3ccccc3)C(C)C)n2c1 [Example 51] | < 1000 | > 80
33 | O=S(=O)(c1ccccc1)c1ccc2nc(NC[C@H](O)c3ccccc3)nn2c1 [Example 83] | < 1000 | > 80
34 | CCN(CC)S(=O)(=O)c1ccc2nnc(N[C@H](C)c3ccccc3)n2c1 [Example 20] | < 1000 | > 80
35 | CCN(CC)S(=O)(=O)c1ccc2nnc(N[C@@H](C)c3ccccc3)n2c1 [Example 21] | < 1000 | > 80
36 | CCN(CC)S(=O)(=O)c1ccc2nnc(NCC(C)(C)O)n2c1 [Example 18] | 1000 to 10000 | 40 to 80
37 | COc1cccc(S(=O)(=O)c2ccc3nnc(N[C@H](C)c4ccccc4)n3c2)c1 [Example 71] | 1000 to 10000 | > 80
38 | O=S(=O)(c1ccccc1)c1ccc2nc(NCc3cccc(C(F)(F)F)c3)nn2c1 [Example 82] | < 1000 | > 80
39 | O=S(=O)(c1ccccc1)c1ccc2nnc(NCC(O)C3CCCCCC3)n2c1 (centres unmarked) [Example 78] | < 1000 | > 80
40 | CCN(CC)S(=O)(=O)c1ccc2nnc(NC3Cc4ccccc4C3)n2c1 [Example 4] | < 1000 | > 80
41 | CN1CCC(c2ccc(CNc3nc4ccc(S(=O)(=O)c5ccccc5)cn4n3)cc2)CC1 [Example 93] | < 1000 | > 80
42 | Cc1ccc(CNc2nc3ccc(S(=O)(=O)N4CCCCC4)cn3n2)cc1 [Example 102] | < 1000 | > 80
43 | CCN(CC)S(=O)(=O)c1ccc2nnc(NC(C)c3ccc(C)cc3)n2c1 (centres unmarked) [Example 27] | < 1000 | > 80
44 | CCN(CC)S(=O)(=O)c1ccc2nnc(NC3CCc4ccccc4C3)n2c1 (centres unmarked) [Example 32] | 1000 to 10000 | 40 to 80
45 | CCN(CC)S(=O)(=O)c1ccc2nnc(NCc3ccccc3)n2c1 [Example 1, 3-(Benzylamino)-N,N-diethyl-[1,2,4]triazolo[4,3-a]pyridine-6-sulfonamide] | < 1000 | > 80
46 | CCN(CC)S(=O)(=O)c1ccn2c(NCC(C)(C)C)nnc2c1 [Example 60, N,N-Diethyl-3-(neopentylamino)-[1,2,4]triazolo[4,3-a]pyridine-7-sulfonamide] | < 1000 | > 80
47 | CCN(CC)S(=O)(=O)c1ccc2nnc(NCc3cccnc3)n2c1 [Example 15] | > 10000 | 40 to 80
48 | CCN(CC)S(=O)(=O)c1ccc2nnc(NCc3ccc(C)c(C)c3)n2c1 [Example 39] | < 1000 | > 80
49 | CCN(CC)S(=O)(=O)c1ccc2nnc(N[C@@H](Cc3ccccc3)C(=O)N3CCCCC3)n2c1 [Example 53] | < 1000 | > 80
